Data from patent US20080214583A1, “7H-Pyrrolo[2,3-D]Pyrimidine Derivatives, As Well As Their Therapeutically Acceptable Salts, Pharmaceutical Preparations Containing Them And Process For Production The Active Agent” (priority 2004, published 2008).

SMILES	melting point
Cc1c(C)n(-c2cccc(Cl)c2)c2ncnc(Nc3cc(C(C)(C)C)nn3-c3cccc([N+](=O)[O-])c3)c12 [Example 4, [5-tert.-butyl-2-(3-nitro-phenyl)-2H-pyrazole-3-yl]-[7-(3-chlorophenyl)-5,6-dimethyl-7H-pyrrolo[2,3-d]pyrimidine-4-yl]-amine]	189 to 190 °C
Cc1c(C)n(CCCN2CCOCC2)c2ncnc(NN=Cc3ccc(O)c([N+](=O)[O-])c3)c12 [Example 13, 4-{[5,6-dimethyl-7-(3-morpholine-4-yl-propyl)-7H-pyrrolo[2,3-d]pyrimidine-4-yl]hydrazonomethyl}-2-nitro-phenol]	158.8 to 161.5 °C
Cc1c(C)n(CCCN2CCOCC2)c2ncnc(Nc3cc(C(C)(C)C)nn3-c3cccc([N+](=O)[O-])c3)c12 [Example 16, [5-tert.-butyl-2-(3-nitro-phenyl)-2H-pyrazole-3-yl]-[5,6-dimethyl-7-(3-morpholine-4-yl-propyl)-7H-pyrrolo[2,3-d]pyrimidine-4-yl]-amine]	120.9 to 125.3 °C
Cc1c(C)n(-c2cccc(Cl)c2)c2ncnc(C(=NN)c3ccc(O)c([N+](=O)[O-])c3)c12 [Example 21, 4-{[5,6-dimethyl-7-(3-chloro-phenyl)-7H-pyrrolo[2,3-d]pyrimidine-4-yl]-hydrazonomethyl}-2-nitro-phenol]	204.2 to 206.5 °C
COc1cc(C(=NN)c2ncnc3c2c(C)c(C)n3-c2cccc(Cl)c2)ccc1O [Example 24, 4-{[5,6-dimethyl-7-(3-chloro-phenyl)-7H-pyrrolo[2,3-d]pyrimidine-4-yl]-hydrazonomethyl}-2-methoxy-phenol]	146 to 187 °C
Cc1cc(C(=NN)c2ncnc3c2c(C)c(C)n3Cc2ccccc2)cc(C)c1O [Example 29, 4-[(7-benzyl-5,6-dimethyl-7H-pyrrolo[2,3-d]pyrimidine-4-yl)-hydrazonomethyl]-2,6-dimethyl-phenol]	237 to 240 °C
Cc1c(C)n(Cc2ccccc2)c2ncnc(C(=NN)c3ccc(N(C)C)cc3)c12 [Example 31, {4-[(7-benzyl-5,6-dimethyl-7H-pyrrolo[2,3-d]pyrimidine-4-yl)-hydrazonomethyl]-phenyl}-dimethyl-amine]	219 to 221 °C
COc1cc(C(=NN)c2ncnc3c2c(C)c(C)n3Cc2ccccc2)ccc1O [Example 33, 4-[(7-benzyl-5,6-dimethyl-7H-pyrrolo[2,3-d]pyrimidine-4-yl)-hydrazonomethyl]-2-methoxy-phenol]	220 to 221 °C
Cc1c(C)n(Cc2ccccc2)c2ncnc(C(=NN)c3ccc(C#N)cc3)c12 [Example 35, 4-[(7-benzyl-5,6-dimethyl-7H-pyrrolo[2,3-d]pyrimidine-4-yl)-hydrazonomethyl]-benzonitrile]	223.5 to 225 °C
Cc1c(C)n(-c2cccc(Cl)c2)c2ncnc(NN=C3C(=O)Nc4c(Cl)ccc(Cl)c43)c12 [Example 41, 4,7-dichloro-3-{[5,6-dimethyl-7-(3-chloro-phenyl)-7H-pyrrolo[2,3-d]pyrimidine-4-yl]-hydrazono}-1,3-dihydro-indole-2-on]	284 to 285 °C
Cc1c(C)n(-c2cccc(Cl)c2)c2ncnc(Nc3c(C#N)c(-c4ccccc4)c(-c4ccccc4)n3Cc3ccccc3)c12 [Example 62, 1-benzyl-2-[5,6-dimethyl-7-(3-chloro-phenyl)-7H-pyrrolo[2,3-d]pyrimidine-4-yl-amino]-4,5-diphenyl-1H-pyrrol-3-carbonitrile]	187.4 to 189.3 °C
Cc1c(C#N)c(Nc2ncnc3c2c(C)c(C)n3-c2cccc(Cl)c2)n(Cc2ccccc2)c1C [Example 63, 1-benzyl-2-[5,6-dimethyl-7-(3-chloro-phenyl)-7H-pyrrolo[2,3-d]pyrimidine-4-yl-amino]-4,5-dimethyl-1H-pyrrol-3-carbonitrile]	228.1 to 229 °C
Cc1c(C#N)c(Nc2ncnc3c2c2ccccc2n3Cc2ccccc2)n(-c2cccc(Cl)c2)c1C [Example 64, 2-(9-benzyl-9H-1,3,9-triaza-fluorene-4-yl-amino)-1-(3-chloro-phenyl)-4,5-dimethyl-1H-pyrrol-3-carbonitrile]	252.2 to 253.1 °C
N#Cc1c(-c2ccccc2)c(-c2ccccc2)n(Cc2ccccc2)c1Nc1ncnc2c1c1ccccc1n2Cc1ccccc1 [Example 66, 1-benzyl-2-(9-benzyl-9H-1,3,9-triaza-fluorene-4-yl-amino)-4,5-diphenyl-1H-pyrrol-3-carbonitrile]	> 90 °C
Cc1c(C)n(Cc2ccccc2)c2ncnc(Nc3c(C#N)c(-c4ccccc4)c(-c4ccccc4)n3Cc3ccccc3)c12 [Example 74, 1-benzyl-2-(7-benzyl-5,6-dimethyl-7H-pyrrolo[2,3-d]pyrimidine-4-yl-amino)-4,5-diphenyl-1H-pyrrol-3-carbonitrile]	197.1 to 197.6 °C

Other lines, results leading:

melting point	SMILES
214 to 216 °C	COc1ccccc1C=NNc1ncnc2c1c(C)c(C)n2Cc1ccccc1 [Example 17, N-(7-benzyl-5,6-dimethyl-7H-pyrrolo[2,3-d]pyrimidine-4-yl)-N′-(2-methoxy-benzylidene)-hydrazine]
165 to 166 °C	Cc1c(C)n(Cc2ccccc2)c2ncnc(NN=Cc3ccc(C(F)(F)F)cc3)c12 [Example 26, N-(7-benzyl-5,6-dimethyl-7H-pyrrolo[2,3-d]pyrimidine-4-yl)-N′-(4-trifluoromethyl-benzylidene)-hydrazine]
202 to 205 °C	Cc1c(C)n(Cc2ccccc2)c2ncnc(C(=NN)c3ccc(O)c([N+](=O)[O-])c3)c12 [Example 28, 4-[(7-benzyl-5,6-dimethyl-7H-pyrrolo[2,3-d]pyrimidine-4-yl)-hydrazonomethyl]-2-nitro-phenol]
103 to 109.5 °C	Cc1c(C)n(Cc2ccccc2)c2ncnc(NN=Cc3cccc([N+](=O)[O-])c3)c12 [Example 32, N-(7-benzyl-5,6-dimethyl-7H-pyrrolo[2,3-d]pyrimidine-4-yl)-N′-(3-nitro-benzylidene)-hydrazine]
292 to 294.5 °C	Cc1c(C)n(-c2cccc(Cl)c2)c2ncnc(NN=C3C(=O)Nc4ccc(Br)cc43)c12 [Example 38, 5-bromo-3-{[5,6-dimethyl-7-(3-chloro-phenyl)-7H-pyrrolo[2,3-d]pyrimidine-4-yl]-hydrazono}-1,3-dihydro-indole-2-on]
281 to 293 °C	Cc1c(C)n(-c2cccc(Cl)c2)c2ncnc(NN=C3C(=O)Nc4ccccc43)c12 [Example 39, 3-{[5,6-dimethyl-7-(3-chloro-phenyl)-7H-pyrrolo[2,3-d]pyrimidine-4-yl]-hydrazono}-1,3-dihydro-indole-2-on]
314 to 315 °C	Cc1c(C)n(-c2cccc(Cl)c2)c2ncnc(NN=C3C(=O)Nc4ccc(Cl)cc43)c12 [Example 40, 5-chloro-3-{[5,6-dimethyl-7-(3-chloro-phenyl)-7H-pyrrolo[2,3-d]pyrimidine-4-yl]-hydrazono}-1,3-dihydro-indole-2-on]
302 to 303 °C	Cc1ccc2c(c1)C(=NNc1ncnc3c1c(C)c(C)n3-c1cccc(Cl)c1)C(=O)N2 [Example 42, 3-{[5,6-dimethyl-7-(3-chloro-phenyl)-7H-pyrrolo[2,3-d]pyrimidine-4-yl]-hydrazono}-5-methyl-1,3-dihydro-indole-2-on]
271 to 279 °C	Cc1c(C)n(-c2cccc(Cl)c2)c2ncnc(NN=C3C(=O)Nc4ccc(F)cc43)c12 [Example 43, 3-{[5,6-dimethyl-7-(3-chloro-phenyl)-7H-pyrrolo[2,3-d]pyrimidine-4-yl]-hydrazono}-5-fluoro-1,3-dihydro-indole-2-on]
262 to 276 °C	Cc1c(C)n(-c2cccc(Cl)c2)c2ncnc(NN=C3C(=O)Nc4ccc(OC(F)(F)F)cc43)c12 [Example 44, 3-{[5,6-dimethyl-7-(3-chloro-phenyl)-7H-pyrrolo[2,3-d]pyrimidine-4-yl]-hydrazono}-5-trifluoromethoxy-1,3-dihydro-indole-2-on]
288 to 290 °C	Cc1c(C)n(Cc2ccccc2)c2ncnc(NN=C3C(=O)Nc4ccc(Br)cc43)c12 [Example 45, 3-[(7-benzyl-5,6-dimethyl-7H-pyrrolo[2,3-d]pyrimidine-4-yl)-hydrazono]-5-bromo-1,3-dihydro-indole-2-on]
292 to 293 °C	Cc1c(C)n(Cc2ccccc2)c2ncnc(NN=C3C(=O)Nc4ccccc43)c12 [Example 46, 3-[(7-benzyl-5,6-dimethyl-7H-pyrrolo[2,3-d]pyrimidine-4-yl)-hydrazono]-1,3-dihydro-indole-2-on]
302 to 303 °C	Cc1c(C)n(Cc2ccccc2)c2ncnc(NN=C3C(=O)Nc4ccc(Cl)cc43)c12 [Example 48, 3-[(7-benzyl-5,6-dimethyl-7H-pyrrolo[2,3-d]pyrimidine-4-yl)-hydrazono]-5-chloro-1,3-dihydro-indole-2-on]
299 °C	Cc1c(C)n(Cc2ccccc2)c2ncnc(NN=C3C(=O)Nc4cc(Cl)cc(Cl)c43)c12 [Example 49, 3-[(7-benzyl-5,6-dimethyl-7H-pyrrolo[2,3-d]pyrimidine-4-yl)-hydrazono]-4,6-dichloro-1,3-dihydro-indole-2-on]
298 °C	Cc1c(C)n(Cc2ccccc2)c2ncnc(NN=C3C(=O)Nc4c(Cl)ccc(Cl)c43)c12 [Example 50, 3-[(7-benzyl-5,6-dimethyl-7H-pyrrolo[2,3-d]pyrimidine-4-yl)-hydrazono]-4,7-dichloro-1,3-dihydro-indole-2-on]
236 to 239.1 °C	Cc1c(C#N)c(Nc2ncnc3c2c(C)c(C)n3Cc2ccccc2)n(Cc2ccccc2)c1C [Example 75, 1-benzyl-2-(7-benzyl-5,6-dimethyl-7H-pyrrolo[2,3-d]pyrimidine-4-yl-amino)-4,5-dimethyl-1H-pyrrol-3-carbonitrile]
